Assay [1] relates to Ileum. Nature of the assay: Anticholinergic effect in guinea pig ileum assessed as inhibition of acetylcholine-induced contraction. The format is functional.
Assay [2] has as its system Ileum. Nature of the assay: Inhibition of electrically-induced twitch contraction in guinea pig ileum at 1 ug/ml after 15 mins. The conditions noted are these: Cavia porcellus, 0.25 h. The format is functional.
For assay [3], the system named is Ileum. Briefly: Inhibition of electrically-induced twitch contraction in guinea pig ileum at 3.4 uM. As to conditions: Cavia porcellus. The format is functional, tissue-based.
Assay [4] deals with Ileum. Briefly: Antihistaminic effect in guinea pig ileum assessed as inhibition of histamine-induced contraction by Schild plot. The format is functional, tissue-based. The conditions noted are these: Cavia porcellus, read-out: pA2 (converted).
In assay [5] the test system is Ileum. Nature of the assay: Inhibition of electrically-induced twitch contraction in guinea pig ileum at 3.2 uM. Format: functional, tissue-based. As to conditions: Cavia porcellus.
Assay [6] deals with Ileum. Briefly: Antihistaminic effect in guinea pig ileum assessed as inhibition of histamine-induced contraction. The format is functional, Cavia porcellus.
The test system of assay [7] is Ileum. Nature of the assay: Antihistaminic effect in guinea pig ileum assessed as inhibition of histamine-induced contraction at 34 uM. The conditions noted are these: Cavia porcellus. Format: functional, tissue-based.
For assay [8], the system named is Ileum. Briefly: Anticholinergic effect in guinea pig ileum assessed as inhibition of acetylcholine-induced contraction at 1 uM. Format: functional, tissue-based. As to conditions: Cavia porcellus.
For assay [9], the system named is Ileum. Nature of the assay: Anticholinergic effect in guinea pig ileum assessed as inhibition of acetylcholine-induced contraction at 3.4 uM. The conditions noted are these: Cavia porcellus. The format is functional, tissue-based.
Assay [10] deals with Ileum. Briefly: Inhibition of electrically-induced twitch contraction in guinea pig ileum at 3.4 uM preincubated for 15 mins before addition of naloxone in presence of naloxone. The conditions noted are these: Cavia porcellus. Format: functional, tissue-based.
The subject of assay [11] is Ileum. Briefly: Inhibition of electrically-induced twitch contraction in guinea pig ileum at 1 uM. The conditions noted are these: Cavia porcellus. The format is functional, tissue-based.
The subject of the next assay is Intestine. Nature of the assay: Anticholinergic effect in rat intestine assessed as inhibition of acetylcholine-induced contraction. Format: functional, tissue-based. As to conditions: read-out: pA2 (converted).

Activity calls are given as the source filed them. The rule behind the calls is not given here.

This is an account of results in ChEMBL document CHEMBL1148997, “Stereochemical considerations in relation to the pharmacological activity of Pterotaberna alkaloids” (J Nat Prod, 1985).

What is called inhibition is the share of the control response that was lost under treatment. Read a low inhibition as a response near the control. Turning to `C/C=C1/CN(C)C[C@@H]2Cc3c([nH]c4ccccc34)C(=O)C[C@@H]12`, the outcome in the assay with Ileum [1] (Cavia porcellus) was inactive. The molecule further yielded an inhibition at 1 µg/mL in the assay on Ileum [2] of 20%. The result in the assay on Ileum [3] was Active. Besides, in the assay with Ileum [4], the Kb is 0.282 µM.

For `C/C=C1/CN(C)C[C@H]2C(=O)c3c([nH]c4ccccc34)C(=O)C[C@@H]12`, in the assay on Ileum [5], the result was inactive.

`C/C=C1/C[N+](C)([O-])C[C@H]2Cc3c([nH]c4ccccc34)C(=O)C[C@@H]12` (stereo partly specified): the outcome with Ileum [5] was inactive.

On to `C/C=C1/CN(C)C[C@H]2Cc3c([nH]c4ccccc34)C(=O)C[C@@H]12` [METHUENINE], for which the pD2 with Ileum [1] is recorded as 5.1; in the assay with Ileum [6], 5.13. Moreover, the result in the assay with Ileum [7], in the assay on Ileum [3], with Ileum [8], in the assay on Ileum [9], with Ileum [10] and in the assay with Ileum [11] was Active.

In the case of `COc1ccc(Cc2nccc3cc(OC)c(OC)cc23)cc1OC` [PAPAVERINE], the pD2 with Ileum [1] is 5.08. Also, the Kb in the assay on Intestine is 15.8 µM.
